Where a name gives a salt, the structure may show the parent alone. Read-outs that look alike come from different tables or passages of the source.

Experiment [1] addresses T1, α-1b adrenoreceptor (hamster) (Mesocricetus auratus, UniProt P18841).
T1 construct: expressed in transfected cells; cDNA from TULCO; membranes
T1 sequence (P18841 1-515): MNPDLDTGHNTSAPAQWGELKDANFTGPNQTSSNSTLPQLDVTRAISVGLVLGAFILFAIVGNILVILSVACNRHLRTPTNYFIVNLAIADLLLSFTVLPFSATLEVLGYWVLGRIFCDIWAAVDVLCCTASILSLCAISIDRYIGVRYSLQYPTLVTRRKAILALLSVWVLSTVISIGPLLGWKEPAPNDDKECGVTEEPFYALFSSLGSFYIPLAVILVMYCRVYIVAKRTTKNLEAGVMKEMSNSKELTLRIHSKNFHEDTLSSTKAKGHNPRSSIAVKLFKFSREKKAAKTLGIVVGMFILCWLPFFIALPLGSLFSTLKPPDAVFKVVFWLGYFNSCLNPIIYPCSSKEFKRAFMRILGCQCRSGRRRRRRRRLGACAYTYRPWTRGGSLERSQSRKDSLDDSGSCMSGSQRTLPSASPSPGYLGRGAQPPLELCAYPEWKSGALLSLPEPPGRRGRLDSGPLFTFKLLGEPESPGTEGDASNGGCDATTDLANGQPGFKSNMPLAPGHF
The experiment in a line: In vitro [3H]-prazosin radioligand binding, cloned α-1b adrenoreceptor expressed in LTK cells. The text has this:
(§1) The cDNA clones encoding the α-1 adrenoreceptors (α-1a, α-1b, and α-1d) were obtained from TULCO (Triangle Universities Licensing Consortium, Research Triangle Park, N.C.) and inserted into the eukaryotic expression vector SnaB30. In this vector, expression of the adrenoreceptor gene is under the transcriptional control of an SV40 early promoter. Positive drug selection is provided by a neomycin-resistance gene. Mouse fibroblast cells (LTK) were transfected with the α1 expression plasmids and grown in Dulbecco's modified Eagle's medium (DMEM) containing 10% fetal calf serum and […]. Stable G418-resistant parental lines were generated, with successful expression of adrenoreceptor protein monitored using radioligand binding techniques. Stable single cell clones derived from the parental lines were screened in adrenoreceptor binding assays to identify clones having high adrenoreceptor density. Roller bottle cultures of the cloned lines were used to provide cell membranes for subsequent adrenoreceptor binding characterization studies. A cell line containing the SnaB30 vector expressing the human erythropoietin gene served as a negative control.
(§2) For adrenoreceptor binding assays, large scale membrane preparations were utilized in which 6 million cells were seeded into small (450 cm^2) Corning tissue culture roller bottles. 200 mL of DMEM containing 10% fetal calf serum and 300 μM G418 were added to each roller bottle. A 95% air/5% CO2 gas mixture (sterile) was injected into each roller bottle prior to sealing. The bottles were then incubated at 37° C. on a roller rack for 5 days. Cells were re-fed with fresh medium after 3 days in culture.
(§3) On the fifth day of culture, growth medium was removed from cells grown in roller bottles, and the cells were washed twice with PBS (Sigma, 120 mM NaCl, 2.7 mM KCl, 10 mM Na2 HPO4 --NaH2 PO4, pH=7.4). Cells were detached from the roller bottles by incubating for 15 minutes at 37° C. in a Tris-EDTA solution (10 mM Tris, 100 mM NaCl, 1 mM EDTA, pH=7.4). The cell suspension from each roller bottle was decanted into tared centrifuge tubes and kept on ice. An aliquot of each cell suspension was generally taken for cell counting. Cells were centrifuged at 3000×G for 5 min at 2°-4° C., washed with PBS and recentrifuged. The supernatant was decanted and the pellet weighed to determine the wet weight of cells. Cells were washed a final time in 40 vol 5 mM Tris-HCl, 5 mM EDTA, pH=7.7, and centrifuged at 40,000×G for 10 minutes. Cells were homogenized in 10 mL of 50 mM Tris-HCl, 5 mM EDTA (pH=7.4) and diluted to 40 mL/tube. Homogenates were centrifuged at 40,000×G for 10 minutes. The supernatant was decanted and the pellets rehomogenized in 50 mM Tris-HCl (pH=7.4) and centrifuged as before. The supernatant was decanted and the homogenate resuspended in 6.25 volumes (per gram wet weight) of 50 mM Tris-HCl and aliquots of the pooled homogenates frozen in liquid N2 and stored at -70° C. until the time of assay. Rat submaxillary glands were used for α-1A adrenoreceptors and were prepared essentially as described (Michel, A. D., Loury, D. N. and Whiting, R. L., Brit. J. Pharmacol. 98: 83-889 (1989)).
(§4) Receptor binding assays for α-1 adrenoreceptors were performed essentially as described by Greengrass and Bremner (Eur. J. Pharmacol. 55: 323-326 (1979)). […] Radioactivity was determined by standard liquid scintillation techniques. Data were analyzed as previously described (Hancock, A. A., Kyncl, J. J., Martin, Y. C. and DeBernardis, J. F., J Receptor Res. 8: 23-46 (1988)).

The target in experiment [2] is T2, α-1d adrenoreceptor (rat) (Rattus norvegicus, UniProt P23944).
T2 construct: expressed in transfected cells; cDNA from TULCO; membranes
T2 sequence (P23944 1-561): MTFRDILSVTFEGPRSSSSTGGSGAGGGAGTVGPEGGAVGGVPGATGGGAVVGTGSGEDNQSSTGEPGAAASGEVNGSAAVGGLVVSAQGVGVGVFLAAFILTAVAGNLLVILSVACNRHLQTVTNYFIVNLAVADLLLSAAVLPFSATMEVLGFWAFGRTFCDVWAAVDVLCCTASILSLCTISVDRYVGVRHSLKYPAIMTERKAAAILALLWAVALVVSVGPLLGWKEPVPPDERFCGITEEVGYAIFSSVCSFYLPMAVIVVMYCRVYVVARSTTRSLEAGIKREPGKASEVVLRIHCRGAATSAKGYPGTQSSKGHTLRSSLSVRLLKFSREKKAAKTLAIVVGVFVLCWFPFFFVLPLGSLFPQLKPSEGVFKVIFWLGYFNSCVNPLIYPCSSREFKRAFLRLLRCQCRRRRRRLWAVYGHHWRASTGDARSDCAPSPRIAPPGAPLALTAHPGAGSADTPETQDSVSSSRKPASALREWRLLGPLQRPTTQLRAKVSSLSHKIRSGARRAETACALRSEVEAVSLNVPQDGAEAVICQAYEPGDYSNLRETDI
The experiment is described as follows: In vitro [3H]-prazosin radioligand binding, cloned α-1d adrenoreceptor expressed in LTK cells. Here is the method: Additionally, binding affinity against the pharmacologically defined α-1A adrenoreceptor (rat submaxillary gland) was measured.
as §1, §2, §3, §4

[3] abbreviates: cloned hamster α-1b in LTK cells, [3H]prazosin 0.2 nM, read-out: Radioligand Binding (Ki; nM) 1b (Hamster).
Setting [4] is: cloned rat α-1d in LTK cells, [3H]prazosin 0.2 nM, read-out: Radioligand Binding (Ki; nM) 1d (Rat).

As to `COc1cccc2c1[C@@H]1CCN(CCCCn3c(=O)[nH]c4c(sc5ccccc54)c3=O)C[C@H]1CO2` (relative stereo) [Example 87, 3-[4-((±)-trans-10-Methoxy-1,3,4,4a,5,10b-hexahydro-2H-[1]-benzopyrano[3,4-c]pyrido-3-yl)butyl]-[1]-benzthieno[3,2-d]pyrimidine-2,4(1H,3H)-dione hydrochloride], the results for the Ki in experiment [1] and in experiment [2] were 2.86 nM and 0.704 nM, respectively.
The matching figures for `COc1cccc2c1[C@@H]1CCN(CCCCn3c(=O)[nH]c4c(sc5cccnc54)c3=O)C[C@H]1CO2` (relative stereo) [Example 88, 3-[4-((±)-trans-10-Methoxy-1,3,4,4a,5,10b-hexahydro-2H-[1]-benzopyrano[3,4-c]pyrido-3-yl)butyl]-pyrido[2',3':4,5]thieno[3,2-d]pyrimidine-2,4(1H,3H)-dione hydrochloride]: 0.791 nM and 0.259 nM.
In the case of `COc1cc2[nH]c(=O)n(CCN3CC[C@H]4c5c(OC)cccc5OC[C@@H]4C3)c(=O)c2cc1OC` (relative stereo) [Example 91, 3-[2-((±)-trans-10-Methoxy-1,3,4,4a,5,10b-hexahydro-2H-[1]-benzopyrano[3,4-c]pyrido-3-yl)ethyl]-6,7-dimethoxy-quinazoline-2,4(1H,3H)-dione hydrochloride], the Ki in experiment [1] (setting [3]) came to 1.46 nM; in experiment [2] (setting [4]), 0.495 nM.
The matching figures for `COc1ccc2c(n1)sc1c(=O)n(CCCCN3C[C@@H]4COc5cccc(OC)c5[C@@H]4C3)c(=O)[nH]c12` [Example 33, hydrochloride]: 10.5 nM and 0.701 nM.

Usually Ki stands for a measure of affinity in units of concentration, obtained from inhibition or displacement.
